Laboratory results from paper PMC9894184 (Proceedings of the National Academy of Sciences of the …, 2022).

Molecular target: dFASN (FASN1), recombinant full-length (Drosophila melanogaster, UniProt B7Z001)
Assay: NADPH oxidation FASN activity assay, Michaelis-Menten fit
Assay type: biochemical
Settings: 240 µM NADPH, 58 µM malonyl-CoA fixed

dFASN (FASN1), recombinant full-length, sequence (B7Z001 1-2540): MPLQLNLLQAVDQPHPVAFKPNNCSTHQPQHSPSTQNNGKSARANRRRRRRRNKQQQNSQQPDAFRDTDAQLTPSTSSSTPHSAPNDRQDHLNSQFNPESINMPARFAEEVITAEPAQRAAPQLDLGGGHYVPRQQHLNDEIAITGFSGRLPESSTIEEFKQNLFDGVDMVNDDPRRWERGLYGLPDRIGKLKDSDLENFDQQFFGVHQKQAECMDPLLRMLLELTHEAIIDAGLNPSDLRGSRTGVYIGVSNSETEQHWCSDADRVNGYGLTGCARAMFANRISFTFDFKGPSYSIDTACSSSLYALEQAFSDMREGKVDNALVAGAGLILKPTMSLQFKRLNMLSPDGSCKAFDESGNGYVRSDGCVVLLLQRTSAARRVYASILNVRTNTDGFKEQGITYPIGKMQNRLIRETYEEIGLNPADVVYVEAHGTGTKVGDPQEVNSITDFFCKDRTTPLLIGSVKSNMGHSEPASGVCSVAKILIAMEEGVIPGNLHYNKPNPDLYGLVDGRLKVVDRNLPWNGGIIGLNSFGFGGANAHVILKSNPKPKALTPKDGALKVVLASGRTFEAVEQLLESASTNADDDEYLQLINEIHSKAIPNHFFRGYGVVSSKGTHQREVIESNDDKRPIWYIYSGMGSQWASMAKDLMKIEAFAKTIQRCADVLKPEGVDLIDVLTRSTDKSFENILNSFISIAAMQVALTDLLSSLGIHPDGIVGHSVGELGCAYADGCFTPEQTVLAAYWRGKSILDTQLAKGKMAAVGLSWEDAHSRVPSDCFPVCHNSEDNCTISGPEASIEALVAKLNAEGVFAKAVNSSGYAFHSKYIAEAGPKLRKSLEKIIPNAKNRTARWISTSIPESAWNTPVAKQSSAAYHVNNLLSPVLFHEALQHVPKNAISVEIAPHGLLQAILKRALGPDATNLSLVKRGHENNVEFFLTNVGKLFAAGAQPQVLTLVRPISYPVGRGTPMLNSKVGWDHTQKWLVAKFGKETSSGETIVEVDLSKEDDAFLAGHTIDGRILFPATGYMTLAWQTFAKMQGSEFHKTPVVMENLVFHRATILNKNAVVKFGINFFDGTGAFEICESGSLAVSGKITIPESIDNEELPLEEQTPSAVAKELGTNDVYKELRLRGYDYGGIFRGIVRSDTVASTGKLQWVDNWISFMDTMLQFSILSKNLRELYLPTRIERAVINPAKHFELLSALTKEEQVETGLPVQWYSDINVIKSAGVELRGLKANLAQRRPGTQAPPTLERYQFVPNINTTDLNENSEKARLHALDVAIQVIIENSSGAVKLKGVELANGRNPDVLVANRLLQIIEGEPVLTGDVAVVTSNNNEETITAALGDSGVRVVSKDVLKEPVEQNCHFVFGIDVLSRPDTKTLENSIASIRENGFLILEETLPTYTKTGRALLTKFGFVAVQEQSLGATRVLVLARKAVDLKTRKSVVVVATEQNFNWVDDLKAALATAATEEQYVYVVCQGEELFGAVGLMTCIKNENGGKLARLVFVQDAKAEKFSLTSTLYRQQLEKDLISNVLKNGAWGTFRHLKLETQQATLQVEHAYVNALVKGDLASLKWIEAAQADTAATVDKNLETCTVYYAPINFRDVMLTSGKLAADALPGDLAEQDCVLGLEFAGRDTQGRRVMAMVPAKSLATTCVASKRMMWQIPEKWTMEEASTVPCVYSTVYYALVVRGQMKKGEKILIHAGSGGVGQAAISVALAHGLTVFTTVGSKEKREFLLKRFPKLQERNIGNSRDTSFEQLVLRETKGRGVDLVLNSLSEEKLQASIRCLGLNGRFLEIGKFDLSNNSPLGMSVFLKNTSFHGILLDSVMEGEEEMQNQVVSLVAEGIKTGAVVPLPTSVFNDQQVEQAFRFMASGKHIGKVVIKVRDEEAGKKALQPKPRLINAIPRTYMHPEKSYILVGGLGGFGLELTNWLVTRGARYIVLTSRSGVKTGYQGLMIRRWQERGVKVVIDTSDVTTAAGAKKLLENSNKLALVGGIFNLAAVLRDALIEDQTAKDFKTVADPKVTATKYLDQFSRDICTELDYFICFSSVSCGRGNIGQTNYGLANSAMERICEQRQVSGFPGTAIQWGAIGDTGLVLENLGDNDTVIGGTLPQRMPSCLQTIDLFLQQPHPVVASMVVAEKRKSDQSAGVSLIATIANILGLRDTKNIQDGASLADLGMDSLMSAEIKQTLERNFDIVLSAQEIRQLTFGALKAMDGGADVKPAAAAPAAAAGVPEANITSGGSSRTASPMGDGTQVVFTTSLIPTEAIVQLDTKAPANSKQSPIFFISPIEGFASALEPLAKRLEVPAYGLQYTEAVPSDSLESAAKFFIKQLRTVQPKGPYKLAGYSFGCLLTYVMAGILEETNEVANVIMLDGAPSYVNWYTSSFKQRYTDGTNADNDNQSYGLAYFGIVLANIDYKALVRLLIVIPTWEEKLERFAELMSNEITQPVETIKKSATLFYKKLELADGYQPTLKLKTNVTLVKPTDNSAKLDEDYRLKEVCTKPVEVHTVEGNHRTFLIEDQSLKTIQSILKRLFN

## CC(=O)SCCNC(=O)CCNC(=O)[C@H](O)C(C)(C)COP(=O)(O)OP(=O)(O)OC[C@H]1O[C@@H](n2cnc3c(N)ncnc32)[C@H](O)[C@@H]1OP(=O)(O)O [acetyl-CoA]
  Km: Steady-state kinetics over AcCoA was also evaluated
